From patent US10822587B2, “T cell balance gene expression, compositions of matters and methods of use thereof” (The Broad Institute, Inc., priority 2013, dated 2020)
Entries after “also recorded” stand apart in the source; their conditions may differ.

What was measured:
[1] = molecular target: T1, PROCR (Mus musculus, UniProt Q64695); assay: Quantitative RT-PCR of pathogenic signature genes in Th17 cells differentiated in the presence of activated protein C; assay type: cell-based
T1 construct: endogenous in cells; host or cells: primary naïve CD4+ T cells (mouse spleen/lymph node) polarized to Th17 with TGF-β1 + IL-6
T1 sequence (Q64695 18-242): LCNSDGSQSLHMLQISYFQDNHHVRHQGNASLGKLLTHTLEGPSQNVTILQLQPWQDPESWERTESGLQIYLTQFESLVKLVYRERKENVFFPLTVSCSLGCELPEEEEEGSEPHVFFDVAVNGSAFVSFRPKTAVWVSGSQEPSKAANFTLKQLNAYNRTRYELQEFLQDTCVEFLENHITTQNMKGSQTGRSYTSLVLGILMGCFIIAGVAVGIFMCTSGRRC
Excerpt: FIG. 23A depicts quantitative RT-PCR analysis of mRNA expression of several pathogenic signature genes in Th17 cells differentiated with TGFβ1 and IL-6 in the presence of activated protein C (aPC) for 3 days in vitro. FIG. 23B depicts quantitative RT-PCR analysis of mRNA expression of several pathogenic signature genes in naïve CD4^+ T cells polarized under Th17 conditions, transduced with either GFP control retrovirus (Control RV) or PROCR-expressing retrovirus (PROCR RV) for 3 days. FIG. 23C depicts quantitative RT-PCR analysis of mRNA expression of several pathogenic signature genes in Th17 cells from EPCR δ/δmice and control mice differentiated with TGFβ1 and IL-6 for 3 days in vitro.
FIGS. 32A, 32B, 32C and 32D are a series of graphs depicting how PROCR and PD-1 expression affects Th17 pathogenicity. FIG. 32A depicts signature genes of pathogenic and non-pathogenic Th17 cells. Naïve CD4+ T cells were differentiated into non-pathogenic (TGFβ+IL-6) or pathogenic (TGFβ3+IL-6 or IL-β+IL-6) Th17 cells and PROCR expression was determined by quantitative PCR. FIG. 32B depicts how naïve WT or PROCRd/d CD4+ T cells were stimulated under Th17 polarizing conditions (TGFβ+IL-6) in the presence or absence of aPC. Quantitative expression of three pathogenic signature genes was determined on day 3. […] Mice were monitored for EAE. […]. […]

[2] = test system: Th17 cells; assay: IL-17 / IFN-γ production of Th17 cells differentiated with activated protein C (intracellular staining, ELISA); assay type: cell-based, mouse; details: aPC 300 nM, anti-CD3/anti-CD28, TGF-β+IL-6; flow cytometry day 3, ELISA day 3 and 5
Procedure: FIG. 20A depicts how naïve CD4+ T cells were differentiated into Th17 cells by anti-CD3/anti-CD28 stimulation in the presence of activated protein C (aPC, 300 nM), the ligand of PROCR. On day 3, cells were stimulated with PMA and Ionomycin for 4 hr, stained intracellularly for IFN-γ and IL-17 and analyzed by flow cytometry. FIG. 20B depicts IL-17 production from Th17 cells (TGF-β+IL-6) differentiated with or without activated protein C (aPC and Ctl, respectively) was assessed by ELISA on Day 3 and 5. FIG. 20C depicts how naïve CD4+ T cells were polarized under Th17 conditions (TGF-β+IL-6), transduced with either GFP control retrovirus (Ctl RV) or PROCR-expressing retrovirus (PROCR RV). Intracellular expression of IFN-γ and IL-17 in GFP+ cells were assessed by flow cytometry. FIG. 20D depicts how naïve CD4+ T cells from EPCR δ/δmice and control mice were polarized under Th17 conditions with TGF-β1 and IL-6. Intracellular expression of IFN-γ and IL-17 were assessed by flow cytometry. […]
Naïve T cells from knockout mice and their wild type controls were cultured as described above, their supernatants were collected after 72 h, and cytokine concentrations were determined by ELISA (antibodies for IL-17 and IL-10 from BD Bioscience) or by cytometric bead array for the indicated cytokines (BD Bioscience), according to the manufacturers' instructions (FIG. 5, FIG. 16).

activated protein C
mRNA expression of pathogenic signature genes ([1]; Th17 cells differentiated with TGFβ1 and IL-6 in the presence of aPC for 3 days in vitro): impairs some pathogenic signature genes in Th17 cells; also recorded: induces a downregulation of the pathogenic signature genes IL-3, CXCL3, CCL4 and Pdp; also recorded: decreased the expression of some of the genes identified as a part of the pathogenic signature of Th17 cells | expression of non-pathogenic signature genes ([1]; Th17 polarizing conditions (TGFβ+IL-6) in the presence or absence of aPC, day 3): induces some non-pathogenic signature genes | cytokine production (IL-17, IFN-γ) from Th17 cells [2]: not essential for cytokine production from Th17 cells
